Source: patent US10323000B2, “Indole derivatives and their use in neurodegenerative diseases” (priority 2014, dated 2019)
Where two headings read alike, the source gives them in different places.

Columns and labels:
[1] = molecular target: human P2X7 receptor (Homo sapiens (Human), UniProt Q99572); experiment: Pore permeation assay (YO PRO dye uptake); format: cell-based
Procedure: Agonist-induced pore formation was determined by measuring cellular uptake of YO PRO fluorescence dye in HEK293 transfected with human P2X7 receptor. A HEK293 cell over expressing human P2X7 was harvested using HQTase reagent to detach the cells from T75 cm flask. The harvested cells are centrifuged @1200 rpm for 5 min at room temperature. The viability of cells was determined by Trypan blue dye and the cells are plated @10,000 cell/well in 50 ul volume in a 384W BD Poly lysine coated plate and incubated overnight at 37 C. […] The plate was centrifuged at 1000 rpm for 5 seconds and incubated at room temperature for 30 minutes. The uptake of YO PRO dye into the cells was measured using Envision Fluorescence plate reader instrument (Perkin Elmer).

[2] = molecular target: P2X7 (IL-1β release from THP-1 cells) (Homo sapiens (Human), UniProt Q99572); experiment: IL-1β release assay; format: cell-based
Sequence of P2X7 (IL-1β release from THP-1 cells) (Q99572 whole entry): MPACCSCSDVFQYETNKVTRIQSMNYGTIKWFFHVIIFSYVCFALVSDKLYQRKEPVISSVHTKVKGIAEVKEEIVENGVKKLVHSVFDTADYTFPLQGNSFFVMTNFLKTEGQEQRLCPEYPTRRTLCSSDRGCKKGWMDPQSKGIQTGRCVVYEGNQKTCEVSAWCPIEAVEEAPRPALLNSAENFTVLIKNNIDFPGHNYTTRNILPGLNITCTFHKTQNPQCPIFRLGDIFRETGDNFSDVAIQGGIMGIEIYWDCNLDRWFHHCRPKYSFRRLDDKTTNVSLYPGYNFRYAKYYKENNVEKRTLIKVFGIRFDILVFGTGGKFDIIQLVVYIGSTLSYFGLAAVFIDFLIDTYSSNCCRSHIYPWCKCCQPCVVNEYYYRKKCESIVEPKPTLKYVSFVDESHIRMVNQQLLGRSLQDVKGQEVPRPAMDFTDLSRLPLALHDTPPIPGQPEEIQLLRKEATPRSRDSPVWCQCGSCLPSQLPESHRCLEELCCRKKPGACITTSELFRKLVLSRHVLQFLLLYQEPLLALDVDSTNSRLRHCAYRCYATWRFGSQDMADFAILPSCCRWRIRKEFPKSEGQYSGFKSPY
Procedure: IL-1β release assay: The activation of P2X7 by ATP leads to a fast transient activation of cells resulting in influx of Ca^2+ followed by conversion of pro-IL-1β to active IL-1β. The functional activity of P2X7 compounds was measured by the release of mature […] in the culture medium of THP-1 cells, detected by sandwich ELISA. […] THP-1 cells were harvested from the flask in 50 ml by centrifugation for 3 min at 100 g. The cells were resuspended to 2×10^5 cells/ml in medium supplemented with 0.5 μM PMA and incubated. The cells were washed and resuspended to 1.5×10^5 cells/ml in medium complemented with 10 ng/ml LPS, and the cells were primed for 4 h at 37° C., 5% CO2. After addition of 20 μL of prediluted test compounds, blank, standard and control reagents, cells were incubated for a further 20 min at 37° C. and stimulated with 0.8 mM BzATP for 30 minutes. The cells were centrifuged, supernatant was collected and the presence of mature IL-1β was detected using Dual human IL-1b kit following manufacturer's instruction. The tetrahydrobenzodiazepine analogs effectively modulated the activity of P2X7 in the cells as measured by the levels of pro-inflammatory cytokine IL-1β, which is released by the activation of P2X7 receptor.

[3] = HEK293 transfected with human P2X7, BzATP 10 uM, YO PRO dye uptake, read-out: hP2X7 IC50
[4] = THP-1 cells, LPS primed, 0.8 mM BzATP, mature IL-1β by sandwich ELISA, read-out: hTHP-1/IL-ib IC50

Sequence of human P2X7 receptor (Q99572 whole entry): as above

Compound | IC50 [1, 3] [nM] | IC50 [2] [nM] | IC50 [1] [nM] | IC50 [2, 4] [nM]
C[C@H]1CCC[C@@](O)(CNC(=O)c2cn(CCC(F)F)c3cccc(Cl)c23)C1 [Compound 7] | < 10 | 10 to 100 | – | –
C[C@@H]1CCC[C@](O)(CNC(=O)c2cn(CCC(F)F)c3cccc(Cl)c23)C1 [Compound 8, 4-Chloro-1-(3,3-difluoro-propyl)-1H-indole-3-carboxylic acid ((1R,3R)-1-hydroxy-3-methyl-cyclohexylmethyl)-amide] | – | 101 to 500 | 10 to 100 | –
O=C(NCC1CCCC(F)(F)C1)c1cn(CCC(F)F)c2cccc(Cl)c12 (centres unmarked) [Compound 9, 4-Chloro-1-(3,3-difluoro-propyl)-1H-indole-3-carboxylic acid (3,3-difluoro-cyclohexylmethyl)-amide] | < 10 | 101 to 500 | – | –
O=C(NCC1(O)CCC(F)(F)CC1)c1cn(CCC(F)F)c2cccc(Cl)c12 [Compound 10, 4-Chloro-1-(3,3-difluoro-propyl)-1H-indole-3-carboxylic acid (4,4-difluoro-1-hydroxy-cyclohexylmethyl)-amide] | – | 101 to 500 | 10 to 100 | –
O=C(NCC1(O)CCC(F)(F)CC1)c1cn(CCC(F)(F)F)c2cccc(Cl)c12 [Compound 12, 4-chloro-N-((4,4-difluoro-1-hydroxycyclohexyl)methyl)-1-(3,3,3-trifluoropropyl)-1H-indole-3-carboxamide] | – | 500 to 999 | 101 to 500 | –
O=C(NCC1CCC(F)(F)CC1)c1cn(CCC(F)(F)F)c2cccc(Cl)c12 [Compound 13, 4-chloro-N-((4,4-difluorocyclohexyl)methyl)-1-(3,3,3-trifluoropropyl)-1H-indole-3-carboxamide] | – | 10 to 100 | 10 to 100 | –
COCCn1cc(C(=O)NCC2(OC)CCC(F)(F)CC2)c2c(Cl)cccc21 [Compound 17, 4-Chloro-1-(2-methoxy-ethyl)-1H-indole-3-carboxylic acid (4,4-difluoro-1-methoxy-cyclohexylmethyl)-amide] | – | 101 to 500 | 10 to 100 | –
COCCn1cc(C(=O)NCC2(O)CCCCC2O)c2c(Cl)cccc21 (centres unmarked) [Compound 18, 4-Chloro-1-(2-methoxy-ethyl)-1H-indole-3-carboxylic acid (1,2-dihydroxy-cyclohexylmethyl)-amide] | > 1000 | – | – | > 1000
COCCn1cc(C(=O)NCC2(O)CCCCC2)c2c(Cl)cccc21 [Compound 19, 4-Chloro-1-(2-methoxy-ethyl)-1H-indole-3-carboxylic acid (1-hydroxy-cyclohexyl methyl)-amide] | – | 101 to 500 | 10 to 100 | –
COCCn1cc(C(=O)NC[C@]2(O)CCCC(F)(F)C2)c2c(Cl)cccc21 [Compound 20, (S)-4-chloro-N-((3,3-difluoro-1-hydroxycyclohexyl)methyl)-1-(2-methoxyethyl)-1H-indole-3-carboxamide] | – | 101 to 500 | 10 to 100 | –
COCCn1cc(C(=O)NC[C@@]2(O)CCCC(F)(F)C2)c2c(Cl)cccc21 [Compound 21, (R)-4-chloro-N-((3,3-difluoro-1-hydroxycyclohexyl)methyl)-1-(2-methoxyethyl)-1H-indole-3-carboxamide] | < 10 | 10 to 100 | – | –
CCC1CCCC(O)(CNC(=O)c2cn(CCOC)c3cccc(Cl)c23)C1 (centres unmarked) [Compound 22, 4-chloro-N-((3-ethyl-1-hydroxycyclohexyl)methyl)-1-(2-methoxyethyl)-1H-indole-3-carboxamide] | – | – | 101 to 500 | > 1000
COCCn1cc(C(=O)NCCc2cccs2)c2c(Cl)cccc21 [Compound 30, 4-Chloro-1-(2-methoxy-ethyl)-1H-indole-3-carboxylic acid (2-thiophen-2-yl-ethyl)-amide] | – | 101 to 500 | 10 to 100 | –
COCCn1cc(C(=O)NC(CO)c2cccc(C(F)(F)F)c2Cl)c2c(Cl)cccc21 (centres unmarked) [Compound 32, 4-chloro-N-(1-(2-chloro-3-(trifluoromethyl)phenyl)-2-hydroxyethyl)-1-(2-methoxyethyl)-1H-indole-3-carboxamide] | 101 to 500 | – | – | 500 to 999
COCCn1cc(C(=O)NCC(C)c2ccccc2Cl)c2c(Cl)cccc21 (centres unmarked) [Compound 33, 4-chloro-N-(2-(2-chlorophenyl)propyl)-1-(2-methoxyethyl)-1H-indole-3-carboxamide] | – | – | 101 to 500 | > 1000
COCCn1cc(C(=O)NCCc2ccc(F)cc2Cl)c2c(Cl)cccc21 [Compound 34, 4-Chloro-1-(2-methoxy-ethyl)-1H-indole-3-carboxylic acid [2-(4-fluoro-2-chloro-phenyl)-ethyl]-amide] | – | 101 to 500 | 101 to 500 | –

Compound | IC50 [1, 3] [nM] | IC50 [2] [nM] | IC50 [1] [nM] | IC50 [2, 4] [nM]
COCCn1cc(C(=O)NCCc2ccccc2Cl)c2c(Cl)cccc21 [Compound 35, 4-Chloro-1-(2-methoxy-ethyl)-1H-indole-3-carboxylic acid [2-(2-chloro-phenyl)-ethyl]-amide] | – | 101 to 500 | 101 to 500 | –
COCCn1cc(C(=O)NCCc2ccc(Cl)cc2Cl)c2c(Cl)cccc21 [Compound 36] | – | – | 101 to 500 | > 1000
COCCn1cc(C(=O)NCC2(O)CCCC(F)(F)C2)c2c(Cl)cccc21 (centres unmarked) [Compound 37, 4-chloro-N-((3,3-difluoro-1-hydroxycyclohexyl)methyl)-1-(2-methoxyethyl)-1H-indole-3-carboxamide] | – | 10 to 100 | 10 to 100 | –
COCCn1cc(C(=O)NCC2(c3ccc(C(F)(F)F)cc3)CCOCC2)c2c(Cl)cccc21 [Compound 38] | – | 101 to 500 | 10 to 100 | –
COCCn1cc(C(=O)NCC2(c3ccccc3)CCCCC2)c2c(Cl)cccc21 [Compound 39, 4-chloro-1-(2-methoxyethyl)-N-((1-phenylcyclohexyl)methyl)-1H-indole-3-carboxamide] | – | 101 to 500 | 10 to 100 | –
COCCn1cc(C(=O)NCC2(O)CCC(F)(F)CC2)c2c(Cl)cccc21 [Compound 40, 4-chloro-N-((4,4-difluoro-1-hydroxycyclohexyl)methyl)-1-(2-methoxyethyl)-1H-indole-3-carboxamide] | – | 10 to 100 | 10 to 100 | –
COCCn1cc(C(=O)NCC2CCC(F)(F)CC2)c2c(Cl)cccc21 [Compound 41, 4-chloro-N-((4,4-difluorocyclohexyl)methyl)-1-(2-methoxyethyl)-1H-indole-3-carboxamide] | – | – | 10 to 100 | < 10
O=C(NCC1(N2CCN(c3ccccc3)CC2)CCOCC1)c1cn(C2COC2)c2cccc(Cl)c12 [Compound 44, 4-chloro-1-(oxetan-3-yl)-N-((4-(4-phenylpiperazin-1-yl)tetrahydro-2H-pyran-4-yl)methyl)-1H-indole-3-carboxamide] | – | 101 to 500 | 10 to 100 | –
O=C(NCCC1(O)CCCC1)c1cn(C2COC2)c2cccc(Cl)c12 [Compound 45, 4-chloro-N-(2-(1-hydroxycyclopentyl)ethyl)-1-(oxetan-3-yl)-1H-indole-3-carboxamide] | > 1000 | – | – | > 1000
O=C(NCC1CCCCC1)c1cn(C2COC2)c2cccc(Cl)c12 [Compound 48, 4-chloro-N-(cyclohexylmethyl)-1-(oxetan-3-yl)-1H-indole-3-carboxamide] | – | 101 to 500 | 101 to 500 | –
O=C(NCC1(N2CCN(c3ccccc3)CC2)CCCCC1)c1cn(C2COC2)c2cccc(Cl)c12 [Compound 51, 4-chloro-1-(oxetan-3-yl)-N-((1-(4-phenylpiperazin-1-yl)cyclohexyl)methyl)-1H-indole-3-carboxamide] | – | – | 10 to 100 | < 10
O=C(NCC1CCC(C(F)(F)F)CC1)c1cn(C2COC2)c2cccc(Cl)c12 (centres unmarked) [Compound 53, 4-Chloro-1-oxetan-3-yl-1H-indole-3-carboxylic acid (4-trifluoromethyl-cyclohexylmethyl)-amide] | – | 101 to 500 | 10 to 100 | –
O=C(NCC1CCCC(C(F)(F)F)C1)c1cn(C2COC2)c2cccc(Cl)c12 (centres unmarked) [Compound 56, 4-Chloro-1-oxetan-3-yl-1H-indole-3-carboxylic acid (3-trifluoromethyl-cyclohexylmethyl)-amide] | – | 101 to 500 | 10 to 100 | –
O=C(NCC1(O)CCCCC1)c1cn(C2COC2)c2cccc(Cl)c12 [Compound 58, 4-Chloro-1-oxetan-3-yl-1H-indole-3-carboxylic acid (1-hydroxy-cyclohexylmethyl)-amide] | – | 101 to 500 | 10 to 100 | –
O=C(NCC1C[C@@H]2CC[C@H]1C2)c1cn(C2COC2)c2cccc(Cl)c12 (stereo partly drawn) [Compound 59, 4-Chloro-1-oxetan-3-yl-1H-indole-3-carboxylic acid ((1S,4R)-1-bicyclo[2.2.1]hept-2-ylmethyl)-amide] | – | 10 to 100 | 10 to 100 | –
